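Test compounds were applied to cells in 96-well plates for 48 hours at 5 doses. Here, GI50 denotes the concentration required for 50% inhibition of growth. TGI: concentration producing complete growth inhibition.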
How the values were obtained:
Assay in all cases: NCI tumour cell line growth inhibition, 48 h
MDA-MB-231 breast = tested on: MDA-MB-231 breast
NCI/ADR-RES ovarian = tested on: NCI/ADR-RES ovarian
T-47D breast = tested on: T-47D breast
DU-145 prostate = tested on: DU-145 prostate
SNB-75 CNS = tested on: SNB-75 CNS
SW-620 colon = tested on: SW-620 colon
A549 NSCLC = tested on: A549 NSCLC
UACC-257 melanoma = tested on: UACC-257 melanoma
BT-549 breast = tested on: BT-549 breast
ACHN renal = tested on: ACHN renal
HCT-116 colon = tested on: HCT-116 colon
SK-MEL-28 melanoma = tested on: SK-MEL-28 melanoma
EKVX NSCLC = tested on: EKVX NSCLC
MCF7 breast = tested on: MCF7 breast
HL-60(TB) leukemia = tested on: HL-60(TB) leukemia
SN12C renal = tested on: SN12C renal
OVCAR-4 ovarian = tested on: OVCAR-4 ovarian
TK-10 renal = tested on: TK-10 renal
SK-MEL-5 melanoma = tested on: SK-MEL-5 melanoma
UACC-62 melanoma = tested on: UACC-62 melanoma
K-562 leukemia = tested on: K-562 leukemia
SK-MEL-2 melanoma = tested on: SK-MEL-2 melanoma
HOP-62 NSCLC = tested on: HOP-62 NSCLC
CCRF-CEM leukemia = tested on: CCRF-CEM leukemia
RPMI-8226 leukemia = tested on: RPMI-8226 leukemia
OVCAR-8 ovarian = tested on: OVCAR-8 ovarian
SF-295 CNS = tested on: SF-295 CNS
HT29 colon = tested on: HT29 colon
NCI-H460 lung = tested on: NCI-H460 lung
M14 melanoma = tested on: M14 melanoma
OVCAR-3 ovarian = tested on: OVCAR-3 ovarian
IGROV1 ovarian = tested on: IGROV1 ovarian
U251 CNS = tested on: U251 CNS
COLO 205 colon = tested on: COLO 205 colon
PC-3 prostate = tested on: PC-3 prostate
SR leukemia = tested on: SR leukemia
HOP-92 NSCLC = tested on: HOP-92 NSCLC
SK-OV-3 ovarian = tested on: SK-OV-3 ovarian
NCI-H226 lung = tested on: NCI-H226 lung
KM12 colon = tested on: KM12 colon
MOLT-4 leukemia = tested on: MOLT-4 leukemia
NCI-H23 lung = tested on: NCI-H23 lung
SNB-19 CNS = tested on: SNB-19 CNS
786-0 renal = tested on: 786-0 renal
OVCAR-5 ovarian = tested on: OVCAR-5 ovarian
UO-31 renal = tested on: UO-31 renal
SF-268 CNS = tested on: SF-268 CNS
RXF 393 renal = tested on: RXF 393 renal
LOX IMVI melanoma = tested on: LOX IMVI melanoma
HCC-2998 colon = tested on: HCC-2998 colon
HCT-15 colon = tested on: HCT-15 colon
A498 renal = tested on: A498 renal
CAKI-1 renal = tested on: CAKI-1 renal

CO[C@H]1C(=O)[C@]2(C)[C@@H](OC)C[C@H]3OC[C@@]3(OC(C)=O)[C@H]2[C@H](OC(=O)c2ccccc2)[C@]2(O)C[C@H](OC(=O)[C@H](O)[C@@H](NC(=O)OC(C)(C)C)c3ccccc3)C(C)=C1C2(C)C
GI50 (MDA-MB-231 breast): < 0.0183 µM
TGI (MDA-MB-231 breast): > 53.6 µM
GI50 (NCI/ADR-RES ovarian): 0.0269 µM
TGI (NCI/ADR-RES ovarian): 1.24 µM
GI50 (T-47D breast): < 0.01 µM
TGI (T-47D breast): > 100 µM
GI50 (DU-145 prostate): < 0.01 µM
TGI (DU-145 prostate): < 0.01 µM
GI50 (SNB-75 CNS): < 0.01 µM
TGI (SNB-75 CNS): < 0.01 µM
GI50 (SW-620 colon): < 0.01 µM
TGI (SW-620 colon): > 100 µM
GI50 (A549 NSCLC): < 0.01 µM
TGI (A549 NSCLC): > 64.9 µM
TGI (UACC-257 melanoma): > 63 µM
GI50 (BT-549 breast): < 0.01 µM
TGI (BT-549 breast): 26.8 µM
GI50 (ACHN renal): 12.6 µM
TGI (ACHN renal): > 100 µM
GI50 (HCT-116 colon): < 0.01 µM
TGI (HCT-116 colon): 21.2 µM
TGI (SK-MEL-28 melanoma): 39.8 µM
GI50 (EKVX NSCLC): 0.425 µM
TGI (EKVX NSCLC): > 100 µM
GI50 (MCF7 breast): < 0.01 µM
TGI (MCF7 breast): 20.5 µM
GI50 (HL-60(TB) leukemia): < 0.01 µM
TGI (HL-60(TB) leukemia): < 0.01 µM
GI50 (SN12C renal): < 0.01 µM
TGI (SN12C renal): > 100 µM
TGI (OVCAR-4 ovarian): > 77.1 µM
GI50 (TK-10 renal): < 0.01 µM
TGI (TK-10 renal): 31.3 µM
GI50 (SK-MEL-5 melanoma): < 0.01 µM
TGI (SK-MEL-5 melanoma): 17.3 µM
GI50 (UACC-62 melanoma): < 0.0147 µM
TGI (UACC-62 melanoma): 56.8 µM
GI50 (K-562 leukemia): < 0.01 µM
TGI (K-562 leukemia): > 100 µM
GI50 (SK-MEL-2 melanoma): < 0.01 µM
TGI (SK-MEL-2 melanoma): 0.973 µM
GI50 (HOP-62 NSCLC): < 0.01 µM
TGI (HOP-62 NSCLC): > 80.4 µM
GI50 (CCRF-CEM leukemia): < 0.01 µM
TGI (CCRF-CEM leukemia): 42.3 µM
GI50 (RPMI-8226 leukemia): < 0.01 µM
TGI (RPMI-8226 leukemia): > 38 µM
GI50 (OVCAR-8 ovarian): < 0.01 µM
TGI (OVCAR-8 ovarian): > 100 µM
GI50 (SF-295 CNS): < 0.01 µM
TGI (SF-295 CNS): 23.9 µM
GI50 (HT29 colon): < 0.01 µM
TGI (HT29 colon): 11.5 µM
GI50 (NCI-H460 lung): < 0.01 µM
TGI (NCI-H460 lung): 13 µM
GI50 (M14 melanoma): < 0.01 µM
TGI (M14 melanoma): 17.8 µM
GI50 (OVCAR-3 ovarian): < 0.01 µM
TGI (OVCAR-3 ovarian): < 0.01 µM
GI50 (IGROV1 ovarian): < 0.01 µM
TGI (IGROV1 ovarian): > 100 µM
GI50 (U251 CNS): < 0.01 µM
TGI (U251 CNS): 23.8 µM
GI50 (COLO 205 colon): < 0.01 µM
TGI (COLO 205 colon): 0.0103 µM
GI50 (PC-3 prostate): < 0.01 µM
TGI (PC-3 prostate): > 77.8 µM
GI50 (SR leukemia): < 0.01 µM
TGI (HOP-92 NSCLC): 33 µM
GI50 (SK-OV-3 ovarian): < 0.01 µM
TGI (SK-OV-3 ovarian): 35.2 µM
GI50 (NCI-H226 lung): 2.09 µM
TGI (NCI-H226 lung): 39.7 µM
GI50 (KM12 colon): < 0.01 µM
TGI (KM12 colon): 22.4 µM
GI50 (MOLT-4 leukemia): < 0.0114 µM
TGI (MOLT-4 leukemia): 27.8 µM
GI50 (NCI-H23 lung): < 0.01 µM
TGI (NCI-H23 lung): > 100 µM
GI50 (SNB-19 CNS): < 0.0134 µM
TGI (SNB-19 CNS): > 100 µM
GI50 (786-0 renal): < 0.01 µM
TGI (786-0 renal): 87.3 µM
GI50 (OVCAR-5 ovarian): < 0.01 µM
TGI (OVCAR-5 ovarian): 41.5 µM
GI50 (UO-31 renal): < 0.01 µM
TGI (UO-31 renal): 54.3 µM
GI50 (SF-268 CNS): < 0.01 µM
TGI (SF-268 CNS): 68.6 µM
GI50 (RXF 393 renal): < 0.01 µM
TGI (RXF 393 renal): 10.7 µM
GI50 (LOX IMVI melanoma): < 0.01 µM
TGI (LOX IMVI melanoma): 49.7 µM
GI50 (HCC-2998 colon): < 0.01 µM
TGI (HCC-2998 colon): < 0.0168 µM
GI50 (HCT-15 colon): < 0.01 µM
TGI (HCT-15 colon): 56 µM
GI50 (A498 renal): < 0.01 µM
TGI (A498 renal): 10.1 µM
TGI (CAKI-1 renal): > 52.9 µM

From PubChem BioAssay (NCI)
